In patent US8912226B2 (priority 2012, dated 2014):
“And” between values parts separate entries of the source, which are not always exact repeats. Equal entries are not always repeated.

Tested on: rat
Experiment: animal or person
Assay type: in vivo
Conditions: for ED50: ip

With `O=C(O)Cc1ccccc1Nc1c(Cl)cccc1Cl` [Diclofenac sodium] the ED50 (Rattus norvegicus, 2 h) was 127 mg/kg, the “timepoint of peak effect” value (rat, in vivo) was 120 min p. appl and the ED50 (rat, in vivo) was 127,036 μg/kg and 127,036 (119,433- μg/kg.

For `COc1ccc2c(c1)c(CC(=O)O)c(C)n2C(=O)c1ccc(Cl)cc1` [Indometacin], the ED50 (Rattus norvegicus, 2 h) was 161 mg/kg, the “timepoint of peak effect” value (rat, in vivo) was 120 min p. appl and the ED50 (rat, in vivo) was 161,327 μg/kg and 161,327 (149,231- μg/kg.
